From patent US20240150843A1, “METHODS AND MATERIALS FOR IDENTIFYING MYELOMA STAGE AND DRUG SENSITIVITY AND TREATING MYELOMA” (Mayo Foundation for Medical Education and Research, priority 2021, published 2024)

Key:
JJN3 cells = test: MTT assay, PBK inhibitor alone or combined with lenalidomide or bortezomib; type: cell-based, human; details: JJN3 (IMiD resistant cell line)
Experimental: (§1) FIGS. 11A and 11B show MM cell growth and drug response after depletion of PRR11 using CRISPR-Cas9 technology or inhibition of PBK in HMCLs. (A) The lentivirus harboring non-targeting control (NS) and two PRR11 CRISPR gRNAs (#1 and #2) expressing cassette were used to infect two MM cell lines (JJN3 and […]). After confirming depletion of PRR11 in HMCLs by western blot (bottom), an MTT assay was performed to evaluate cell proliferation and drug response to lenalidomide or bortezomib in both control virus-transduced cells and cells with PRR11 depletion. Depletion of PRR11 neither changed MM cell proliferation nor affected lenalidomide and bortezomib sensitivity. (B) JJN3 and XG1LenRes, IMiD resistant cell lines, were treated with a PBK specific inhibitor, HI-TOPK-032 alone (Calbiochem) or combined with either lenalidomide (Len) or bortezomib (Bor) to evaluate synergy by the MTT assay. Inhibition of PBK activity using Hi-TOPK-032, enhanced both lenalidomide and bortezomib sensitivity in JJN3 and XG1LenRes cells.
(§2) Analysis of NM cell proliferation and drug response after modulating PRR11 expression and PBK1 activity: PRR11 and PBK1 expression also was associated with survival and drug response in the CoMMpass dataset. Using CRISPR-Cas9 technology, MM cell proliferation and drug response were investigated after depletion of PRR11. Briefly, the lentivirus harboring non-targeting control and two PRR11 CRISPR gRNA expressing cassettes were prepared and used to infect MM cell lines using methods described elsewhere (Ran et al., Nat Protoc 8(11):2281-2308, 2013; and Zhu et al., Cancer Res 77(16):4317-4327, 2017). After confirming depletion of PRR11 in HMCLs by western blot, an MTT assay was performed to evaluate cell proliferation and drug response to lenalidomide or bortezomib in both control virus-transduced cells and cells with PRR11 depletion. For PBK, JJN3 and XG1LenRes (IMiD resistant cell lines) were treated with a PBK specific inhibitor (HI-TOPK-032; Calbiochem; San Diego, CA) either alone or in combination with either lenalidomide or bortezomib to evaluate their effects by MTT assay.

XG1LenRes cells = test: as above; type: cell-based, human; details: XG1LenRes (IMiD resistant cell line)
Experimental: as §1, §2

N#Cc1c2nc3ccccc3nc2n2ccc(NC(=O)c3cccs3)cc12 [Hi-TOPK-032]
enhanced: bortezomib sensitivity (JJN3 cells; combined with bortezomib) | lenalidomide sensitivity (JJN3 cells; combined with lenalidomide) | bortezomib sensitivity (XG1LenRes cells; combined with bortezomib) | lenalidomide sensitivity (XG1LenRes cells; combined with lenalidomide)
